In patent US11116778B2, “Prodrugs of ALOX-15 inhibitors and methods of using the same” (EMPIRICO INC., priority 2019, dated 2021):
Like-named read-outs stand apart in the source and are kept apart here.

What was measured:
[1] = Solubility assessment in water; format: physicochemical; conditions: for solubility: thermodynamic from solid
Method: Water was added slowly to 4.7 mg of compound 5 until 4.7 ml of water was added at which point the phosphate fully dissolved. The pH of the solution was estimated using litmus paper and estimated to be <3. Without a counterion, the molecular weight of the phosphate is 418 m. Therefore, at 1 mg/ml, the concentration is 2.4 mM.
For comparison, compound 3 is soluble to 0.4 μg/ml (Han et al FASEB J. 2017 31(2):491-504), which at a molecular weight of 308 is 1.3 μM.
Compound 5 was suspended in water (at weight to give a final concentration of 10 mM) and then 2 eq NaHCO3 was added.

[2] = molecular target: T1, 15-lipoxygenase in primary peripheral blood eosinophils (Homo sapiens, UniProt P16050); test: Inhibition of 15-lipoxygenase in human primary eosinophils with short-term exposure, 15-HETE LC-MS/MS; conditions: 10 μM for 30 minutes, 3 μM arachidonic acid, 5 minutes
T1 sequence (P16050 1-662): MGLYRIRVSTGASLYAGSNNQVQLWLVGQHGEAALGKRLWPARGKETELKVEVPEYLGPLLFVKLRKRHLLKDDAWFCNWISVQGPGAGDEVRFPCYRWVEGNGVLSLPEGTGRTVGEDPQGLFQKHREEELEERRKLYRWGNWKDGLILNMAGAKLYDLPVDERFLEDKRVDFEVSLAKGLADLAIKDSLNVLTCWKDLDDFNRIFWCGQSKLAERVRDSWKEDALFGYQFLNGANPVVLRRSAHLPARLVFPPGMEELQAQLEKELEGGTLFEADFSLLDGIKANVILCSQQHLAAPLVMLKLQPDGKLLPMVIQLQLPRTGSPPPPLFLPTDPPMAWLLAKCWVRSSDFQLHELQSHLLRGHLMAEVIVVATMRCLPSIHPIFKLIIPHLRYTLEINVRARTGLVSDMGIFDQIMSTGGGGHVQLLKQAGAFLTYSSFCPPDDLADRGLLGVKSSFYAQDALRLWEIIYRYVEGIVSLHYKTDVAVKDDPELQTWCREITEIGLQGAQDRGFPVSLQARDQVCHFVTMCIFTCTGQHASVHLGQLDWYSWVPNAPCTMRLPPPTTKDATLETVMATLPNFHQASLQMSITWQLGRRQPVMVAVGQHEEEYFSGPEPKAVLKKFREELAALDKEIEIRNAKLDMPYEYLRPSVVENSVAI
Method: Two independent experiments were performed in which primary peripheral blood eosinophils (StemExpress) were thawed from frozen and allowed to recover in growth media for 4 hours at 37° C. […] Arachidonic acid was added to final concentration of 3 μM and experiment started. At 5 minutes post-treatment, the entire reaction was quenched with an equal volume of extraction buffer (methanol, 60 mM ascorbic acid, 0.1% acetic acid) and 15-HETE quantified. Briefly, 15-HETE was quantified using LC-MS/MS (QTrap5500, Applied Biosystems). […] Deuterated 15-HETE (Cayman Chemical) was used as the internal standard. […] Oxidized fatty acids were extracted using liquid/liquid extraction with acetonitrile as a diluent. Reverse chromatography was performed using a Unison UK-C18 column (Imtakt, 50×3 mm i.d., 3 μm, PN: UK-032) using a water/acetonitrile gradient containing 0.05% ammonium hydroxide and 0.1% formic acid.

[3] = molecular target: T2, ALOX15 in human nasal epithelial primary cells (HNEpC) (Homo sapiens, UniProt P16050); test: ALOX15 metabolite levels (15-HETE, 13-HODE) in human nasal epithelial primary cells; format: cell-based; conditions: 5 μM or 1 μM
T2 construct: host or cells: human nasal epithelial primary cells (HNEpC), treated with IL-13
T2 sequence (P16050 1-662): T1 sequence (P16050 1-662)
Method: Human nasal epithelial primary cells (HNEpC) (PromoCell GmbH, Heidelberg, Germany) were cultured according to the manufacturer in provided Primary Cell media in 24 well plates at a density of 25,000 cells per well. Cells were treated with 5 μM or 1 μM of compound 5 or vehicle only (water) in media containing 20 ng/mL IL-13 for 24 hours in a 37° C. cell culture incubator. The following day, media was replaced and fresh media containing 20 ng/mL IL-13 and compound 5 or vehicle was added to each well, then incubated again for 24 hours in a 37° C. cell culture incubator. The process was repeated once more for a 24-hour period.
To determine levels of arachidonic acid and linoleic acid metabolites after compound treatment, cell media was replaced with fresh Primary Cell media without IL-13. ALOX15 substrate (arachidonic acid or linoleic acid) was added to each well at a concentration of 1.5 μM and cells further incubated 37° C. for 1 hour. Media was collected from each well and quenched with an equal volume of LC/MS extraction buffer (methanol, 60 mM ascorbic acid, 0.1% acetic acid).
15-HETE and 13-HODE were quantified using LC-MS/MS (QTrap5500, Applied Biosystems). Q1/Q3 masses: 319.10/219.10 for 15-HETE and 295.10/195.10 Da for 13-HODE. Deuterated 15-HETE (Cayman Chemical) was used as the internal standard. The Q1/Q3 masses are 327.10/184.10 Da for the 15-HETE deuterated standard. […]

pH of the solution ([1]; 1 mg/ml in water, estimated using litmus paper): < 3
increase in water solubility above compound 3 ([1]; disodium salt): 7,200 fold
further increase in solubility as a sodium salt ([1]; disodium salt versus free phosphoric acid): 4 fold
increase in water solubility over compound 3 ([1]; free phosphoric acid): ~1800 fold
solubility ([1]; free phosphoric acid, 4.7 mg fully dissolved in 4.7 ml water, read-out: solubility in water): 1000 µg/mL
solubility ([1]; water with 2 eq NaHCO3, aqueous buffer, disodium salt, 2 eq NaHCO3 added, read-out: concentration in water giving a clear solution): ≥ 10000 µM
solubility ([1]; water, free phosphoric acid, at 1 mg/ml, molecular weight 418, read-out: solubility in water, concentration): 2400 µM
less 15-HETE relative to cells treated with vehicle only (FIG. 3) ([2]; Experiment 1): approximately 79%
less 15-HETE relative to cells treated with vehicle only (FIG. 3) ([2]; Experiment 2): 63%
15-HETE produced versus vehicle alone (FIG. 4) ([3]; 3 x 24 hours with 20 ng/mL IL-13, then 1.5 μM arachidonic acid 1 hour): less
13-HODE produced versus vehicle alone (FIG. 5) ([3]; 3 x 24 hours with 20 ng/mL IL-13, then 1.5 μM linoleic acid 1 hour): less
Structure (SMILES): O=C(Nc1ccc(F)cc1Cl)c1nn(COP(=O)(O)O)c(Cl)c1Cl [compound 5, (4,5-dichloro-3-((2-chloro-4-fluorophenyl)carbamoyl)-1H-pyrazol-1-yl)methyl dihydrogen phosphate]
